According to PMC6979384, “Characterization of the plant homeodomain (PHD) reader family for their histone tail interactions” (Epigenetics & Chromatin, 2020):

Columns and labels:
Assay in all cases: Histone peptide microarray
Format in all cases: binding, human
Conditions in all cases: total n = 4
[1] = system: KDM5B (3)
In short: (§1)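 A peptide microarray holding 293 synthetic histone peptides with individual or combinatorial modifications was probed with each GST-PHD protein at 0.5 μM. Values represent mean intensity (±SD) from four replicates.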

[2] = system: ING3
In short: as §1

[3] = system: BPTF (PB)
In short: as §1

[4] = system: PHRF1 (RP)
In short: as §1

[5] = system: TRIM66 (PB)
In short: as §1

[6] = system: SP140L
In short: as §1

[7] = system: PHF2
In short: as §1

[8] = system: KDM5A (1)
In short: as §1

[9] = system: PHF8
In short: as §1

[10] = system: PHF13
In short: as §1

[11] = system: CHD5 (PCC)
In short: as §1

[12] = system: AIRE (PP)
In short: as §1

[13] = system: DIDO1
In short: as §1

[14] = system: CHD4 (PPCC)
In short: as §1

[15] = system: ING4
In short: as §1

[16] = system: RAG2
In short: as §1

[17] = system: PHF23
In short: as §1

[18] = system: BAZ2B
In short: as §1

[19] = system: ING1
In short: as §1

[20] = system: KDM7A
In short: as §1

[21] = system: DPF2 (PPC2W2)
In short: as §1

[22] = system: ING2
In short: as §1

[23] = system: PHF21A
In short: as §1

[24] = system: KDM4C (TTP)
In short: as §1

[25] = system: ING5
In short: as §1

[26] = system: KDM5B (1)
In short: as §1

[27] = system: CHD5 (PPCC)
In short: as §1

[28] = system: MLL5
In short: as §1

[29] = system: MORC3 (CW)
In short: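 GST-tagged PHD finger readers were expressed, purified and applied at 0.5 μM to a microarray of 293 synthetic histone peptides carrying single or combinatorial PTMs, using an optimized protocol. Binding signals are averages with standard deviation from 4 replicates.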

[30] = system: KDM5A (3)
In short: as §1

[31] = system: TAF3
In short: as §1

[32] = sheet "Array Heatmap", GST-tagged reader, histone peptide array

H3K4me3 + K9ac + S10p: H3 1-20
Array Heatmap signal, KDM5B (3) [1, 32]: 0.4789 | Array Heatmap signal, ING3 [2, 32]: 0.5024 | Array Heatmap signal, BPTF (PB) [3, 32]: 0.3713 | Array Heatmap signal, PHRF1 (RP) [4, 32]: 0.5333 | Array Heatmap signal, TRIM66 (PB) [5, 32]: 0.5913 | Array Heatmap signal, SP140L [6, 32]: 0.3742 | Array Heatmap signal, PHF2 [7, 32]: 0.6992 | Array Heatmap signal, KDM5A (1) [8, 32]: 0.422 | Array Heatmap signal, PHF8 [9, 32]: 0.4377 | Array Heatmap signal, PHF13 [10, 32]: 0.601 | Array Heatmap signal, CHD5 (PCC) [11, 32]: 0.7803 | Array Heatmap signal, AIRE (PP) [12, 32]: 0.4053 | Array Heatmap signal, DIDO1 [13, 32]: 0.8464 | Array Heatmap signal, CHD4 (PPCC) [14, 32]: 0.6064 | Array Heatmap signal, ING4 [15, 32]: 0.4594 | Array Heatmap signal, RAG2 [16, 32]: 0.3673 | Array Heatmap signal, PHF23 [17, 32]: 0.5778 | Array Heatmap signal, BAZ2B [18, 32]: 0.4222 | Array Heatmap signal, ING1 [19, 32]: 0.6226 | Array Heatmap signal, KDM7A [20, 32]: 0.3478 | Array Heatmap signal, DPF2 (PPC2W2) [21, 32]: 0.6858 | Array Heatmap signal, ING2 [22, 32]: 0.7056 | Array Heatmap signal, PHF21A [23, 32]: 0.4669 | Array Heatmap signal, KDM4C (TTP) [24, 32]: 0.4439 | Array Heatmap signal, ING5 [25, 32]: 0.3414 | Array Heatmap signal, KDM5B (1) [26, 32]: 0.5673 | Array Heatmap signal, CHD5 (PPCC) [27, 32]: 0.5185 | Array Heatmap signal, MLL5 [28, 32]: 0.6372 | Array Heatmap signal, MORC3 (CW) [29, 32]: 0.5046 | Array Heatmap signal, KDM5A (3) [30, 32]: 0.592 | Array Heatmap signal, TAF3 [31, 32]: 0.3627

H3K4me3 + K9ac: H3 1-20
Array Heatmap signal (histone peptide microarray) ([1]; GST-tagged KDM5B (3), sheet Array Heatmap, each array performed twice): 0.7448 | Array Heatmap signal (histone peptide microarray) ([2]; GST-tagged ING3, sheet Array Heatmap, each array performed twice): 0.8165 | Array Heatmap signal (histone peptide microarray) ([3]; GST-tagged BPTF (PB = PHD + Bromodomain), sheet Array Heatmap, each array performed twice): 0.6012 | Array Heatmap signal (histone peptide microarray) ([4]; GST-tagged PHRF1 (RP), sheet Array Heatmap, each array performed twice): 0.6133 | Array Heatmap signal (histone peptide microarray) ([5]; GST-tagged TRIM66 (PB = PHD + Bromodomain), sheet Array Heatmap, each array performed twice): 0.6603 | Array Heatmap signal (histone peptide microarray) ([6]; GST-tagged SP140L, sheet Array Heatmap, each array performed twice): 0.3446 | Array Heatmap signal (histone peptide microarray) ([7]; GST-tagged PHF2, sheet Array Heatmap, each array performed twice): 0.9106 | Array Heatmap signal (histone peptide microarray) ([8]; GST-tagged KDM5A (1), sheet Array Heatmap, each array performed twice): 0.468 | Array Heatmap signal (histone peptide microarray) ([9]; GST-tagged PHF8, sheet Array Heatmap, each array performed twice): 0.6077 | Array Heatmap signal (histone peptide microarray) ([10]; GST-tagged PHF13, sheet Array Heatmap, each array performed twice): 0.7477 | Array Heatmap signal (histone peptide microarray) ([11]; GST-tagged CHD5 (PCC = PHD + Dual Chromodomain), sheet Array Heatmap, each array performed twice): 0.7875 | Array Heatmap signal (histone peptide microarray) ([12]; GST-tagged AIRE (PP), sheet Array Heatmap, each array performed twice): 0.4068 | Array Heatmap signal (histone peptide microarray) ([13]; GST-tagged DIDO1, sheet Array Heatmap, each array performed twice): 0.9386 | Array Heatmap signal (histone peptide microarray) ([14]; GST-tagged CHD4 (PPCC = Dual PHD + Dual Chromodomain), sheet Array Heatmap, each array performed twice): 0.6185 | Array Heatmap signal (histone peptide microarray) ([15]; GST-tagged ING4, sheet Array Heatmap, each array performed twice): 0.6305 | Array Heatmap signal (histone peptide microarray) ([16]; GST-tagged RAG2, sheet Array Heatmap, each array performed twice): 0.8735 | Array Heatmap signal (histone peptide microarray) ([17]; GST-tagged PHF23, sheet Array Heatmap, each array performed twice): 0.8466 | Array Heatmap signal (histone peptide microarray) ([18]; GST-tagged BAZ2B, sheet Array Heatmap, each array performed twice): 0.4768 | Array Heatmap signal (histone peptide microarray) ([19]; GST-tagged ING1, sheet Array Heatmap, each array performed twice): 0.8182 | Array Heatmap signal (histone peptide microarray) ([20]; GST-tagged KDM7A, sheet Array Heatmap, each array performed twice): 0.4556 | Array Heatmap signal (histone peptide microarray) ([21]; GST-tagged DPF2 (PPC2W2 = Dual PHD + C2W2-type Zn-finger), sheet Array Heatmap, each array performed twice): 0.7108 | Array Heatmap signal (histone peptide microarray) ([22]; GST-tagged ING2, sheet Array Heatmap, each array performed twice): 0.8738 | Array Heatmap signal (histone peptide microarray) ([23]; GST-tagged PHF21A, sheet Array Heatmap, each array performed twice): 0.4382 | Array Heatmap signal (histone peptide microarray) ([24]; GST-tagged KDM4C (TTP = Tandem Tudor domain + PHD), sheet Array Heatmap, each array performed twice): 0.5829 | Array Heatmap signal (histone peptide microarray) ([25]; GST-tagged ING5, sheet Array Heatmap, each array performed twice): 0.4241 | Array Heatmap signal (histone peptide microarray) ([26]; GST-tagged KDM5B (1), sheet Array Heatmap, each array performed twice): 0.7027 | Array Heatmap signal (histone peptide microarray) ([27]; GST-tagged CHD5 (PPCC = Dual PHD + Dual Chromodomain), sheet Array Heatmap, each array performed twice): 0.5612 | Array Heatmap signal (histone peptide microarray) ([28]; GST-tagged MLL5, sheet Array Heatmap, each array performed twice): 0.8313 | Array Heatmap signal (histone peptide microarray) ([29]; GST-tagged MORC3 (CW = CW-type Zn-finger), sheet Array Heatmap, each array performed twice): 0.7776 | Array Heatmap signal (histone peptide microarray) ([30]; GST-tagged KDM5A (3), sheet Array Heatmap, each array performed twice): 0.93 | Array Heatmap signal (histone peptide microarray) ([31]; GST-tagged TAF3, sheet Array Heatmap, each array performed twice): 0.7366
